Literature values, collected in PMC5666773, “Human Immunodeficiency Virus Proteins Mimic Human T Cell Receptors Inducing Cross-Reactive Antibodies” (International Journal of Molecular Sciences, 2017).

Target: naturally circulating anti-insulin
Conditions: healthy human beings and cats; no clinical effect; read-out: naturally circulating anti-insulin binding

Substance: insulin
- Kd: ~10 µM
